# Measured values as given in patent publication US8765748B2, “Indazolyl, benzimidazolyl, benzotriazolyl substituted indolinone derivatives as kinase inhibitors useful in the treatment of cancer” (University Health Network, priority 2007, dated 2014).
# Entries after “also recorded” stand apart in the source; their conditions may differ.
# Assays:
# PLK2 = target: T1, PLK2 (Homo sapiens, UniProt Q9NYY3); assay: PLK2 Inhibition Assay (Z-Lyte); assay type: biochemical; settings: 10 μM compound; read-out: PLK2 relative inhibition percentage at a dose of 10 μM
# T1 construct: purchased Invitrogen PV4204
# T1 sequence (Q9NYY3 whole entry): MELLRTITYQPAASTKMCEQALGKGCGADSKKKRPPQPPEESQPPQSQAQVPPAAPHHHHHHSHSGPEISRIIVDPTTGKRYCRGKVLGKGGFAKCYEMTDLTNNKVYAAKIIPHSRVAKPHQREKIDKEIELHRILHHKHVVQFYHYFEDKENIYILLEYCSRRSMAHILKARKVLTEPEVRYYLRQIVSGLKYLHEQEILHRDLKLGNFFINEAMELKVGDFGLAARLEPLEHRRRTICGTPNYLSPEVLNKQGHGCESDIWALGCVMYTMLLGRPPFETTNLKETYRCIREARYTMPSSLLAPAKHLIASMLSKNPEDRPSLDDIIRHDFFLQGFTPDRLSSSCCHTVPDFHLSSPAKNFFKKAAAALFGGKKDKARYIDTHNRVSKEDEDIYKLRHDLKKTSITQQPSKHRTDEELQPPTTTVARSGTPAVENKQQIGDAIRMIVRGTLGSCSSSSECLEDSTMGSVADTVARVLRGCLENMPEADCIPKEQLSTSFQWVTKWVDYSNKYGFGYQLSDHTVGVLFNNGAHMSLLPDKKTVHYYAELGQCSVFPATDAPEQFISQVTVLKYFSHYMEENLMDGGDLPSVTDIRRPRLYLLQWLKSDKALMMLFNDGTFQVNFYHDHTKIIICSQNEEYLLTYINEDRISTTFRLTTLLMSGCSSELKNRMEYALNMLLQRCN
# Description: (§1) PLK2 inhibition was determined using the Z-Lyte assay kit from Invitrogen (cat #PV3802). The assay was performed using the recommended manufacturer's instructions with 60 μM ATP and 133 nM PLK2 (Invitrogen cat #PV4204). The % inhibition values were determined according to the manufacturer's directions and IC50 values were obtained using a non-linear 4 point logistic curve fit (XLfit4, IDBS)
# Aurora A = target: T2, Aurora A (Homo sapiens, UniProt O14965); assay: Aurora A Inhibition Assay (Z-Lyte); assay type: biochemical; settings: 20 μM ATP, 12 nM Aurora A; read-out: Aurora A IC50 Ranges
# T2 construct: purchased Invitrogen PV3612
# T2 sequence (O14965 1-403): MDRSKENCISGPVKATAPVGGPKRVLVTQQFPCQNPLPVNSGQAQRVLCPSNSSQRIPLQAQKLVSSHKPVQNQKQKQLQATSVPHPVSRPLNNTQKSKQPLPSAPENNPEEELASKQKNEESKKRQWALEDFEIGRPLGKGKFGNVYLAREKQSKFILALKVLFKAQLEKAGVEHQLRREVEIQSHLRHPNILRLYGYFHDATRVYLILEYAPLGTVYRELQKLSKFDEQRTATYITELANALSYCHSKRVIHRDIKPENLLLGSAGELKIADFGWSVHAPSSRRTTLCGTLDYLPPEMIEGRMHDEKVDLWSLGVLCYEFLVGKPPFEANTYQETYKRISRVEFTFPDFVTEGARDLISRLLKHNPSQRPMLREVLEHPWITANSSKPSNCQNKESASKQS
# Description: as §1, with “Aurora A” for “PLK2”, “Invitrogen.” for “Invitrogen (cat #PV3802).”, “20” for “60”, “12” for “133”, “#PV3612).” for “#PV4204).”
# Aurora B = target: T3, Aurora B (Homo sapiens, UniProt Q96GD4); assay: Aurora B Inhibition Assay (Z-Lyte); assay type: biochemical; settings: 128 μM ATP, 28 nM Aurora B; read-out: Aurora B IC50 Ranges
# T3 construct: purchased Invitrogen PV3970
# Description: as §1, with “Aurora B” for “PLK2”, “Invitrogen.” for “Invitrogen (cat #PV3802).”, “128” for “60”, “28” for “133”, “#PV3970).” for “#PV4204).”
# PDGFRβ = target: T4, PDGFRβ (Homo sapiens, UniProt P09619); assay: Millipore kinase assay, radiolabelled phosphopeptide filter binding, IC50 estimate; assay type: biochemical; settings: estimated from inhibition at three compound concentrations; ATP at the Km
# T4 construct: purchased Millipore (assay service)
# T4 sequence (P09619 33-1106): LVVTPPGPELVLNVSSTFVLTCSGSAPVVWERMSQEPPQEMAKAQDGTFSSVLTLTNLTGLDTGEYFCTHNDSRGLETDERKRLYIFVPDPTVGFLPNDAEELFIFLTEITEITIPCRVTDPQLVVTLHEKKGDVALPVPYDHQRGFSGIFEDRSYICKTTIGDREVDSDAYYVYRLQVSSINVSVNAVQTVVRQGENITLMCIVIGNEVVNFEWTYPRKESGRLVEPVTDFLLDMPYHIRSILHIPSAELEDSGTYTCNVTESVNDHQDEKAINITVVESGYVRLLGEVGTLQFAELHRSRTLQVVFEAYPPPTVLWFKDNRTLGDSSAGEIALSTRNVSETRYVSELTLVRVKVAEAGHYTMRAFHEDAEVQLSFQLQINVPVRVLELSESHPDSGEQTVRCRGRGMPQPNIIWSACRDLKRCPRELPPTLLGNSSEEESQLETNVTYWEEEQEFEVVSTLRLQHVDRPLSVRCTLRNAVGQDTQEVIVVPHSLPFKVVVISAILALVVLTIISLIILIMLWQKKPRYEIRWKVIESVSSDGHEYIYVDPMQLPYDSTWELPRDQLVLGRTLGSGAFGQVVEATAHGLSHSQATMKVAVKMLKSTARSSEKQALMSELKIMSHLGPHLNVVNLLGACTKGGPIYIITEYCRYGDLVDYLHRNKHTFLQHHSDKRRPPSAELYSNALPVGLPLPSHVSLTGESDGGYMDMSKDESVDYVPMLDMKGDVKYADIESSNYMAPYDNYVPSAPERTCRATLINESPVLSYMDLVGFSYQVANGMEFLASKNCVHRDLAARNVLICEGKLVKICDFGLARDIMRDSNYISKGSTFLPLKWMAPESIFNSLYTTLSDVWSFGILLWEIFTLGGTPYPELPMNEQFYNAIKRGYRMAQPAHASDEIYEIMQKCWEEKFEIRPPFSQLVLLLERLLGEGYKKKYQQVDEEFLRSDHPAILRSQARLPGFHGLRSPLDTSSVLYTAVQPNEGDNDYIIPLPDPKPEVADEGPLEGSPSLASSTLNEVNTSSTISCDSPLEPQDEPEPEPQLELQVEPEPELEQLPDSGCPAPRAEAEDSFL
# Description: (§2) Kinase assays at Millipore were performed using a radiolabelled phosphopeptide filter binding detection system, in duplicate, at each compound concentration. The ATP substrate concentration in the reactions was at the Km for each enzyme.
# (§3) To allow for a more direct comparison of compound inhibition, an IC50 value was estimated from the inhibition determined at three compound concentrations. Several assumptions were made to allow this calculation using a 4 parameter non linear curve fit model, including full inhibition set at 100%, no inhibition set to 0%, and a curve fit parameter set at 1. The inflection point was reported as the estimated IC50.
# KDR = target: T5, KDR (Homo sapiens, UniProt P35968); assay: as above; assay type: biochemical; settings: estimated from inhibition at three compound concentrations; ATP at the Km
# T5 construct: purchased Millipore (assay service)
# T5 sequence (P35968 20-1356): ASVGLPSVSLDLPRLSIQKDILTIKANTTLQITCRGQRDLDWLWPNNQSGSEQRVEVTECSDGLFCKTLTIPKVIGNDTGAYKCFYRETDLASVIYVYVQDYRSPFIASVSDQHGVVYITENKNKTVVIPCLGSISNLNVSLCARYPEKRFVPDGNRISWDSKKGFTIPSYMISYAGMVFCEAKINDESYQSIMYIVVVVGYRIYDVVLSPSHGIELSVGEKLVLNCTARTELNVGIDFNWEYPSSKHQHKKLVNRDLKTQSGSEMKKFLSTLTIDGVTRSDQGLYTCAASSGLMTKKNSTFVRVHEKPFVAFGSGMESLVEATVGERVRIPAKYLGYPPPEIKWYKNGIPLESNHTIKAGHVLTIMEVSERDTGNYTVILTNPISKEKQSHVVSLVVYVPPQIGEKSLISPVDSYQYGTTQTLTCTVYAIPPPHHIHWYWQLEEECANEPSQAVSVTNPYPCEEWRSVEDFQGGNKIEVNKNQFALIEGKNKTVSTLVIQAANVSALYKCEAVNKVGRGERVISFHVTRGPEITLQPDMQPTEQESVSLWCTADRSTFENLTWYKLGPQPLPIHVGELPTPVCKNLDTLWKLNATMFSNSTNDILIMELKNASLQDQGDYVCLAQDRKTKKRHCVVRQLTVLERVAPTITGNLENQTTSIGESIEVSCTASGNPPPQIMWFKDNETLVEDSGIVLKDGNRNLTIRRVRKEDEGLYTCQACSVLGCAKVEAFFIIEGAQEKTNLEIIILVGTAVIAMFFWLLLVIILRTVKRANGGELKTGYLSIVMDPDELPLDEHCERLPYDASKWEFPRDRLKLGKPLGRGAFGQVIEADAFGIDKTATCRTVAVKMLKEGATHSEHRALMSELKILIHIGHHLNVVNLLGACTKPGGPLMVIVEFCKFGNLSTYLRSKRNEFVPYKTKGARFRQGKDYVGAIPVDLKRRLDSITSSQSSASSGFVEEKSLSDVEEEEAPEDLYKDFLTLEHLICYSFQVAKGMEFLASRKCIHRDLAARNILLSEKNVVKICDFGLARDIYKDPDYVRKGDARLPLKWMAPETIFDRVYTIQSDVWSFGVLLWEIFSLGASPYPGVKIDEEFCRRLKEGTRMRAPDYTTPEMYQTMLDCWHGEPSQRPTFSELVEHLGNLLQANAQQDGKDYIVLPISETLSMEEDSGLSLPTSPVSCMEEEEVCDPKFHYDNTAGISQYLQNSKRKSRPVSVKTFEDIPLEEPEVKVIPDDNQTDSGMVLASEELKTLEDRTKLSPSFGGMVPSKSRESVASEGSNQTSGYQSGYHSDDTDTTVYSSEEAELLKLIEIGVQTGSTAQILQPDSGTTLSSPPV
# Description: as §2, §3
# FGFR1 = assay: as above; assay type: biochemical; settings: estimated from inhibition at three compound concentrations; ATP at the Km
# Description: as §2, §3
# FLT-1 = target: T6, FLT-1 (Homo sapiens, UniProt P17948); assay: as above; assay type: biochemical; settings: estimated from inhibition at three compound concentrations; ATP at the Km
# T6 construct: purchased Millipore (assay service)
# Description: as §2, §3
# HUV-EC-C cells = assay: In Vitro Angiogenesis Assay (tube formation); assay type: cell-based; settings: 4 hr incubation, 8,000 cells per well, FIG. 1
# Description: HUV-EC-C cells were obtained from the American Type Culture Collection (ATCC, CRL-1730), and were used at early passage for the assay. The in vitro Angiogenesis Assay Kit (Chemicon) was used according to the manufacturer's recommendation. An ice-cold mixture of ECMatrix was transferred into a precooled 96-well plate. After the matrix solution had solidified (>1 hr incubation at 37° C.), 8,000 cells were mixed with the appropriate inhibitor concentration (in 100 microliters EGM-2) and plated into each well. After incubation at 37° C. for 4 hr, tube formation was inspected. Two methods, pattern recognition and branch point counting, were used to quantify the progression of angiogenesis and expressed as a percentage of the control tube count (FIG. 1).
# Lyn = Lyn (Homo sapiens, UniProt P07948); assay: Millipore kinase assay, radiolabelled phosphopeptide filter binding, IC50 estimate; assay type: biochemical; parameters: purchased Millipore (assay service); settings: estimated from inhibition at three compound concentrations; ATP at the Km
# Description: as §2, §3
# TRKA = TRKA (Homo sapiens, UniProt P04629); assay: as above; assay type: biochemical; parameters: purchased Millipore (assay service); settings: estimated from inhibition at three compound concentrations; ATP at the Km
# Chain of TRKA (P04629 33-796): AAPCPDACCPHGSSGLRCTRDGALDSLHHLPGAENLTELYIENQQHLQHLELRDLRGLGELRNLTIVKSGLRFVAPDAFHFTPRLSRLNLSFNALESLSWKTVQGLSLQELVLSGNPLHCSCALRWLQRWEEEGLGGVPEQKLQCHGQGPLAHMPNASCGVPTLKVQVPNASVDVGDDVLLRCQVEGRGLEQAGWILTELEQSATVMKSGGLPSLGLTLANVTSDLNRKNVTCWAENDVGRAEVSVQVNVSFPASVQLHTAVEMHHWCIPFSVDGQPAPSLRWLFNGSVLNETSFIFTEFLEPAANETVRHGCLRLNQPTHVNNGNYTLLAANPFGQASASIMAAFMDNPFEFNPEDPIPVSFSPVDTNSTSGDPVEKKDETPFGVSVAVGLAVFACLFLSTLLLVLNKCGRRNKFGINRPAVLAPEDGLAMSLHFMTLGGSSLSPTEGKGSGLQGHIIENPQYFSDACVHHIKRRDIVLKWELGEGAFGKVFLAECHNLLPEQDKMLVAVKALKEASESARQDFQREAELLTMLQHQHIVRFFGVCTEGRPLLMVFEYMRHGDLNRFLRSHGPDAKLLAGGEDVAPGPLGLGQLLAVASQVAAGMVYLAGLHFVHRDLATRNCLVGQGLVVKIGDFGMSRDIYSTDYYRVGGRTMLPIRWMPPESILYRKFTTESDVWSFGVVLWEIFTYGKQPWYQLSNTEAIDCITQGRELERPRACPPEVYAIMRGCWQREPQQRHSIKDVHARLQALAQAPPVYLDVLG
# Description: as §2, §3
# Ret = Ret (Homo sapiens, UniProt P07949); assay: as above; assay type: biochemical; parameters: purchased Millipore (assay service); settings: estimated from inhibition at three compound concentrations; ATP at the Km
# Chain of Ret (P07949 29-1114): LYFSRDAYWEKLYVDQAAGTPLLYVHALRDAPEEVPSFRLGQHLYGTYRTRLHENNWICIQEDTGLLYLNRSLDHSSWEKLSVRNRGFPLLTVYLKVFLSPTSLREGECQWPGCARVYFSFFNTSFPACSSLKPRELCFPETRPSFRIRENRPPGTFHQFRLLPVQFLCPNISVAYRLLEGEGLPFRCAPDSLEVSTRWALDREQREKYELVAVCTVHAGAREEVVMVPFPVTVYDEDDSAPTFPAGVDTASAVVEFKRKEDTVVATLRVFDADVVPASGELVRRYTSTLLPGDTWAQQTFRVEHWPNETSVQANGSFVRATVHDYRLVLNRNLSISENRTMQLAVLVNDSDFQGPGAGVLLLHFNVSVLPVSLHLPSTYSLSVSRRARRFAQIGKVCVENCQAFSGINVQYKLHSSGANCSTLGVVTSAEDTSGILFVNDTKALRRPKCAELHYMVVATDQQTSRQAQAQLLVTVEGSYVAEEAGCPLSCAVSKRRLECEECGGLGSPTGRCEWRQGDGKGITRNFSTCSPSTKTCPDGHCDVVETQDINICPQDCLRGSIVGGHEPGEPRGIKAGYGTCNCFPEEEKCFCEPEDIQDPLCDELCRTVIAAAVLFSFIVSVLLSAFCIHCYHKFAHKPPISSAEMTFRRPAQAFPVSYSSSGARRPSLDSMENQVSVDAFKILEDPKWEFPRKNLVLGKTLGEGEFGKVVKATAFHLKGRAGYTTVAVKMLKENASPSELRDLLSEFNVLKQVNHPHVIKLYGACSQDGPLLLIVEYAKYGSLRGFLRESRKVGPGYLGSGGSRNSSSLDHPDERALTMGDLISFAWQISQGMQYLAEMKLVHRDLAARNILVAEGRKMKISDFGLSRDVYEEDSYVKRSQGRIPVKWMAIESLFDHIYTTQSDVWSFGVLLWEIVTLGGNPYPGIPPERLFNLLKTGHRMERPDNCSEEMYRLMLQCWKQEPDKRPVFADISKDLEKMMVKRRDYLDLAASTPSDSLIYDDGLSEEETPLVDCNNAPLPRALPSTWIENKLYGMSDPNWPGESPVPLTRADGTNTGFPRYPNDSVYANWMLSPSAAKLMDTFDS
# Description: as §2, §3
# Abl = Abl (Homo sapiens, UniProt P00519); assay: as above; assay type: biochemical; parameters: purchased Millipore (assay service); settings: estimated from inhibition at three compound concentrations; ATP at the Km
# Description: as §2, §3
# human PLK4 = target: T7, human PLK4 (Homo sapiens, UniProt O00444); assay: PLK4 Inhibition Assay (indirect ELISA); assay type: biochemical; settings: 15 μM ATP, 4 nM GST-PLK4; read-out: PLK4 IC50 Ranges
# T7 construct: amino terminal GST fusion of residues 1-391 of human PLK4; made in house; host or cells: E. coli
# T7 sequence (O00444 1-391): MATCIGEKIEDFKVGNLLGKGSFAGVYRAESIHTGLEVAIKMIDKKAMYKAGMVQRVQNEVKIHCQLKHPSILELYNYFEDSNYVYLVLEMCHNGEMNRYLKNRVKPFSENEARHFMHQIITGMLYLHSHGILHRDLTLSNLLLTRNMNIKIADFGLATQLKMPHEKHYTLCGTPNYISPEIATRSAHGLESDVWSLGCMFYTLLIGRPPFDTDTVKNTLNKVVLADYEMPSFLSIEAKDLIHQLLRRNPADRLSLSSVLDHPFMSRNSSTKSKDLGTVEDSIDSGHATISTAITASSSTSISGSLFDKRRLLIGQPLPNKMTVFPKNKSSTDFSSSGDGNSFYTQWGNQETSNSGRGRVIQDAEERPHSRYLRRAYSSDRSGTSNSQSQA
# Method in brief: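 IC50 values, from 4-point logistic fitting, reflect remaining activity measured by indirect ELISA. Enzyme was GST-PLK4 treated with lambda phosphatase and given a 15-minute pre-incubation with compound before ATP start.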
smiles,measurement,setting,value
"O=C1Nc2ccccc2/C1=C\c1ccc2c(/C=C/c3ccncc3)n[nH]c2c1 [Example A57, (E)-3-((3-((E)-2-(pyridin-4-yl)vinyl)-1H-indazol-6-yl)methylene)-indolin-2-one]",inhibition at 10 µM,PLK2,> 50%
same,IC50,Aurora A,< 5 µM
same,IC50,Aurora B,< 5 µM
same,IC50,PDGFRβ,< 5 µM
same,IC50,KDR,< 5 µM
same,IC50,FGFR1,< 5 µM
same,IC50,FLT-1,< 5 µM
same,Inhibition of HUV-EC-C Cell Tube Formation (percentage of the control tube count),HUV-EC-C cells,anti-agiogenic effects at micromolar concentrations; also recorded: inhibition of HUV-EC-C Cell Tube Formation
same,IC50,Lyn,< 5 µM
same,IC50,TRKA,< 5 µM
same,IC50,Ret,< 5 µM
same,IC50,Abl,< 5 µM
same,IC50,human PLK4,< 5 µM
